14 compounds from PubChem BioAssay (NCI) can be followed below.

The structures appear in SMILES notation.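 Assay format: 96-well plates, 48-hour exposure. Abbreviation: GI50, concentration required for 50% inhibition of growth. The concentration for full growth arrest is given as TGI.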

Test systems include TK-10 renal; RPMI-8226 leukemia; MOLT-4 leukemia; DLD-1 colon; KM20L2 colon; T-47D breast; CCRF-CEM leukemia; CAKI-1 renal; HS 578T breast; DU-145 prostate; MCF7 breast; PC-3 prostate.
Common to all, as to test: NCI tumour cell line growth inhibition, 48 h

For `C#CCCCCC#CC1CCCC1C1=CC(=O)c2ccccc21` (stereo not given), the TGI in the assay on TK-10 renal is 34.5 µM; with RPMI-8226 leukemia, 6.46 µM; with MOLT-4 leukemia, greater than 100 µM; with DLD-1 colon, 24.3 µM; with KM20L2 colon, 22 µM.

As for `CN(C)CCNc1ccc2nnn3c4ccc(Cl)cc4c(=O)c1c23`, the TGI is 49.2 µM in the assay on T-47D breast; 22.1 µM with TK-10 renal; greater than 52.8 µM in the assay with CCRF-CEM leukemia; 11 µM with CAKI-1 renal; 13.5 µM in the assay on HS 578T breast; 26.2 µM in the assay with DU-145 prostate. Also, the TGI in the assay on RPMI-8226 leukemia was found to be 25.4 µM; in the assay with MOLT-4 leukemia, 13.3 µM; in the assay on DLD-1 colon, 27.7 µM; in the assay on KM20L2 colon, 16 µM; in the assay with MCF7 breast it was 96.2 µM; in the assay on PC-3 prostate it was 13.6 µM.

Regarding `N=C(N)SC1c2ccccc2-c2cc([N+](=O)[O-])ccc21` (stereo not given), the TGI in the assay on T-47D breast amounted to 16.2 µM; with TK-10 renal, 21.3 µM; in the assay on CCRF-CEM leukemia it was 20.3 µM; in the assay on CAKI-1 renal it was 19.3 µM; with HS 578T breast, 12.2 µM; in the assay on DU-145 prostate, 15.9 µM. The TGI in the assay with RPMI-8226 leukemia was determined as 30.1 µM; in the assay with MOLT-4 leukemia, 17.5 µM; in the assay with MCF7 breast, 12.4 µM; with PC-3 prostate it was 13.8 µM.

`O=[N+]([O-])/C=C/c1cccc(F)c1`: the TGI was found to be 72.5 µM in the assay on T-47D breast; 14.3 µM with TK-10 renal; 5.5 µM in the assay on CCRF-CEM leukemia; 29.9 µM in the assay on CAKI-1 renal; 9.18 µM with HS 578T breast; 21.6 µM in the assay on DU-145 prostate. The figures for the TGI in the assay with RPMI-8226 leukemia, in the assay with MCF7 breast and with PC-3 prostate were 4.14 µM, 3 µM and 11.9 µM, respectively.

On to `CC1(C)[C@@H]2C[C@H]1C(Cc1ccccc1C[C@H]1c3cc(-c4ccccn4)ncc3[C@H]3C[C@@H]1C3(C)C)c1cc(-c3ccccn3)ncc12` (stereo not given in full), for which the TGI with T-47D breast is 3.6 µM; with TK-10 renal, greater than 78.7 µM; in the assay with CCRF-CEM leukemia, 0.899 µM; with CAKI-1 renal, greater than 40.8 µM; with HS 578T breast, greater than 100 µM; in the assay with DU-145 prostate, greater than 37.9 µM. For the same compound, the TGI with RPMI-8226 leukemia is 3.33 µM; in the assay with MOLT-4 leukemia it was 1.23 µM; in the assay on MCF7 breast it was greater than 100 µM.

As for `NC(Cc1ccc2oc3cc(=O)c4ccccc4c-3nc2c1)C(=O)O` (stereo not given), the TGI in the assay on T-47D breast was greater than 84.7 µM; with TK-10 renal it was greater than 97.2 µM; in the assay on CCRF-CEM leukemia, 71.1 µM; with CAKI-1 renal it was greater than 97.7 µM; in the assay on HS 578T breast, 59.6 µM; in the assay with DU-145 prostate, 32 µM. Moreover, the TGI was greater than 88.3 µM with RPMI-8226 leukemia; greater than 88.3 µM with MOLT-4 leukemia; greater than 66.6 µM in the assay on DLD-1 colon; greater than 100 µM with KM20L2 colon; 11.2 µM in the assay on MCF7 breast; greater than 100 µM in the assay with PC-3 prostate.

On to `Cc1ccc(NCCN(C)CC(C)O)c2c(=O)c3ccc(Cl)cc3sc12` (stereo not given), for which the GI50 with TK-10 renal was 5.08 µM; in the assay with HS 578T breast it was 2.83 µM; in the assay with DU-145 prostate, 3.75 µM; in the assay with MCF7 breast, 2.18 µM; in the assay with PC-3 prostate, 2.96 µM. The TGI in the assay with TK-10 renal, in the assay on HS 578T breast, in the assay on DU-145 prostate, in the assay on MCF7 breast and with PC-3 prostate was greater than 100 µM each time.

In the case of `CC(=O)O[C@H]1CC[C@]2(C)[C@H]3C(=O)C=C4[C@@H]5C[C@](C)(C(=O)N6CCCNCC6)CC[C@]5(C)CC[C@@]4(C)[C@]3(C)CC[C@H]2C1(C)C`, the GI50 in the assay with TK-10 renal is 1.77 µM; in the assay on CAKI-1 renal it was 1.43 µM; in the assay with HS 578T breast, 2.13 µM; with DU-145 prostate, 1.71 µM; in the assay on RPMI-8226 leukemia, 1.46 µM. The TGI was found to be 3.45 µM with TK-10 renal; 2.79 µM in the assay on CAKI-1 renal; 4.69 µM in the assay on HS 578T breast; 3.15 µM in the assay on DU-145 prostate; 4.01 µM in the assay with RPMI-8226 leukemia.

Take `C/C=C1/CN2CC[C@@H]3c4ccccc4N4[C@H](C(=O)OC)[C@H]1C[C@H]2[C@]34/C=C/C1=COC[C@@H]2[C@H]1C[C@H]1c3c(c4ccccc4n3C)C[C@@H]2N1C`: the TGI with T-47D breast came to 8.68 µM; in the assay with TK-10 renal it was 7.5 µM; with CCRF-CEM leukemia, 9.49 µM; in the assay on CAKI-1 renal it was 7.89 µM; in the assay with HS 578T breast it was 8.93 µM; with DU-145 prostate, 11.9 µM. Moreover, the TGI in the assay on RPMI-8226 leukemia is 8.33 µM; with MOLT-4 leukemia, 13.4 µM; with MCF7 breast, 8.67 µM; in the assay with PC-3 prostate it was 6.09 µM.

As for `CCCCCCc1ccc(O)cc1O`, the TGI in the assay with CCRF-CEM leukemia is greater than 100 µM; in the assay on RPMI-8226 leukemia it was greater than 77 µM; in the assay with MOLT-4 leukemia, 97.4 µM; in the assay with DLD-1 colon it was greater than 100 µM; with KM20L2 colon it was greater than 100 µM; in the assay on MCF7 breast, greater than 100 µM.

Consider `NC(=O)c1nnc2cc(F)c(F)cc2c1N`, for which the TGI in the assay on T-47D breast is greater than 100 µM; in the assay with TK-10 renal, greater than 100 µM; with CCRF-CEM leukemia it was greater than 100 µM; in the assay with CAKI-1 renal, greater than 100 µM; in the assay with HS 578T breast, 84.4 µM; in the assay on DU-145 prostate, greater than 100 µM. For the same compound, the TGI in the assay on RPMI-8226 leukemia, in the assay on MOLT-4 leukemia, with MCF7 breast and in the assay with PC-3 prostate was greater than 100 µM each time.

Take `CN[C@@H]1[C@H](O)[C@H](NC)[C@H]2O[C@@]3(O)C(=O)C[C@@H](C)O[C@H]3O[C@@H]2[C@H]1O`: the TGI with T-47D breast, in the assay with CCRF-CEM leukemia, with CAKI-1 renal, in the assay on HS 578T breast, in the assay on DU-145 prostate and with RPMI-8226 leukemia was greater than 100 µM each time. Further, the TGI in the assay on MOLT-4 leukemia, in the assay with MCF7 breast and with PC-3 prostate was greater than 100 µM each time.

`COc1cc2c(cc1O)CCN[C@@]21CS[C@H]2c3c(OC(C)=O)c(C)c4c(c3C(COC1=O)N1C2C2c3c(cc(C)c(OC)c3O)CC([C@@H]1O)N2C)OCO4` (stereo not given in full): the TGI with T-47D breast is greater than 1 µM; in the assay with CCRF-CEM leukemia, less than 1e-06 µM; in the assay with CAKI-1 renal it was 0.0622 µM; in the assay with HS 578T breast, 0.0137 µM; in the assay on DLD-1 colon it was 0.0013 µM; in the assay with KM20L2 colon, 6.01e-05 µM. Further, the GI50 was 0.00269 µM with CAKI-1 renal; 0.00279 µM in the assay on HS 578T breast; 0.00462 µM with DU-145 prostate; less than 1 pM in the assay on MOLT-4 leukemia; 0.000277 µM in the assay on MCF7 breast; 0.00429 µM with PC-3 prostate.

On to `C=C(/C=C/C=C(/CCC=C(C)C)COC(C)=O)[C@@H]1CC[C@]2([C@H](CCCO)/C(=C(/C)C=O)CC[C@]2(C)O)[C@@H]1O`, for which the TGI turned out to be 31.3 µM in the assay with TK-10 renal; 4.97 µM with CCRF-CEM leukemia; 17.5 µM in the assay with CAKI-1 renal; 34.9 µM in the assay on MOLT-4 leukemia; 30.4 µM in the assay on DLD-1 colon; 27.9 µM with KM20L2 colon.
